Measurements taken from patent US20240423977A1, “FIVE-MEMBERED RING-FUSED SIX-MEMBERED RING COMPOUND, PREPARATION METHOD THEREFOR, AND PHARMACEUTICAL COMPOSITION AND USE THEREOF” (HANGZHOU POLYMED BIOPHARMACEUTICALS, INC., priority 2022, published 2024).

Legend:
kinase IRAK4 = kinase IRAK4 (Homo sapiens (Human), UniProt Q9NWZ3); experiment: Inhibitory effects of compounds on kinase activity (fluorescence microfluidic mobility detection, competitive with ATP); type: biochemical; settings: IRAK4 6 nM, ATP 10 μM
Chain of kinase IRAK4 (Q9NWZ3 whole entry): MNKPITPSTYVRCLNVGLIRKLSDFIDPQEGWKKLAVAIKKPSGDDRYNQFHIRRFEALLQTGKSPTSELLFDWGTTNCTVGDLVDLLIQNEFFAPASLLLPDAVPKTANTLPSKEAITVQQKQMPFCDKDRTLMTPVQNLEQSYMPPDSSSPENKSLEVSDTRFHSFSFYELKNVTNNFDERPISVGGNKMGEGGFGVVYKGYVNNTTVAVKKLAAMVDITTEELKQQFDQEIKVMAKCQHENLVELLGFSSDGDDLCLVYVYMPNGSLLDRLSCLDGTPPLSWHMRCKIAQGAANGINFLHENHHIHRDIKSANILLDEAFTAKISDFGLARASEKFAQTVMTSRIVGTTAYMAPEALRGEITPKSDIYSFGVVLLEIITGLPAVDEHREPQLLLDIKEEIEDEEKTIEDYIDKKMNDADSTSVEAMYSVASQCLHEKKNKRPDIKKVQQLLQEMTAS
Protocol: Based on an experimental method of fluorescence microfluidic mobility detection, an IC50 value of competitive binding of kinase IRAK4 to ATP by the compounds was determined. The initial detection concentration of the compounds was 10 μM, diluted 4-fold gradient down to […], and tested in duplicate. Among them, commercial staurosporine was the standard control substance in this experiment.
1) IRAK4 kinase was dissolved in kinase buffer (50 mM HEPES pH 7.5, 10 mM MgCl2, 2 mM DTT and 0.01% Brij-35) to a final concentration of 6 nM.
2) The substrate peptide FAM-P8 and ATP were dissolved in the above kinase buffer. The final concentrations of the IRAK4 substrate peptide FAM-P8 and ATP were 3 μM and 10 μM respectively.
3) Dilution of the compounds: the compound was first diluted to 50 μM, and then diluted down with a 4-fold gradient of DMSO. The solution without the compound and kinase is used as a blank control, corresponding to the “minimum value” shown below; and the solution without the compound but with kinase, adenosine 5′-triphosphate disodium salt hydrate, DMSO and buffer is used as a positive control, corresponding to the “maximum value” shown below. 4) Kinase reaction and termination: 10 μL of kinase buffer was added to a 384-well plate containing 5 μL of the compound to be tested, and incubated at room temperature for 10 minutes. Another 10 μL of buffer containing the substrate peptide and adenosine 5′-triphosphate disodium salt hydrate was added to the 384-well plate. After incubation at 28° C. for one hour, 25 μL stop solution (100 mM HEPES pH 7.5, 50 mM EDTA, 0.2% Coating Reagent #3 and 0.015% Brij-35) was added to each well to terminate the reaction.
5) Data reading: the CaliperEZ Reader II instrument was used to read the conversion rate data. Conditions: downstream voltage −500V, upstream voltage −2250V, base pressure −0.5 PSI, and screening pressure −1.2 PSI.
6) Data calculation: the conversion rate data was copied from CaliperEZ Reader II and converted into inhibition rate data. The calculation formula is as follows:
[formula] • IC50 values were fitted using XLFit excel add-in version 5.4.0.8,
Y=Bottom+(Top−Bottom)/(1+(IC50/X)^HillSlope) Fitting formula: […]

[1] = target: IRAK4 protein in THP-1 cells (Homo sapiens (Human), UniProt Q9NWZ3); experiment: PROTAC-induced IRAK4 protein degradation in THP-1 cells (Western Blot); type: cell-based; settings: for DC50: concentration that degraded 50% of IRAK4, Western blotting, 24 hours after administration; for IRAK4 degradation rate 24 hours after administration of the compounds with a concentration of 1 μM: Western blotting
Chain of IRAK4 protein in THP-1 cells (Q9NWZ3 whole entry): as above
Protocol: 2.1 Based on the experimental method of Western Blot, specific antibodies were used to stain the THP-1 cell samples treated by gel electrophoresis, and the degrading activity of the compounds on the IRAK4 protein in THP-1 cells was determined by analyzing the position and depth of staining. The concentrations of compound for the detection included 0 μM, 0.3 μM, 1 μM and 3 μM, and the cells were treated by the compound for 8 hours, 16 hours, 24 hours, and 48 hours. Glyceraldehyde-3-phosphate dehydrogenase (GAPDH) is an internal reference protein in this experiment.
Electrophoresis buffer: 50 mL MOPS SDS Running Buffer (20×) and 50 mL 20×TBS Tween-20 buffer were diluted with deionized water to 1 L as the electrophoresis buffer;
5% skim milk (w/v): 2.5 g skim milk was diluted with 50 mL 1×TBS Tween-20 buffer to prepare 5% skim milk;
5% BSA (w/v): 2.5 g BSA was diluted with 50 mL 1×TBS Tween-20 buffer to prepare 5% BSA;
Anti-IRAK4 antibody was diluted with 5% BSA at 1:1000 into a primary antibody working solution;
Goat Anti-Rabbit IgG H&L (HRP) was diluted with 5% BSA at 1:2000 into a second antibody working solution; and
Goat Anti-Mouse IgG H&L (HRP) was diluted with 5% BSA at 1:2000 into a second antibody working solution.
THP-1 cells were plated in a 6-well plate at a density of 1.5×10^6 cells per ml and incubated for 2 hours in a cell culture incubator under 37° C. and 5% CO2. The compound was diluted with DMSO to 0.6 mM, 0.2 mM and 0.06 mM respectively. 10 μL of compound solution was added to the corresponding wells, and continued to incubate in the incubator for 16 hours, 24 hours and 48 hours respectively. The compound-treated THP-1 cells in the well were collected, added with 120 μL of RIPA lysate containing protease inhibitor, Phosphatase Inhibitor Cocktail 2 and Phosphatase Inhibitor Cocktail 3, lysed on wet ice for 30 minutes, and then the cells lysate was centrifuged at a high speed and a low temperature for 5 minutes to collect the supernatant. The protein concentration of the cell sample was determined according to the instructions in the Pierce™ BCA Protein Assay Kit.
The concentration of the sample was adjusted to be consistent using lysis buffer and NuPAGE® LDS sample buffer containing 1M DTT. The samples were heated at 95° C. for 5 minutes and centrifuged at a low temperature and at a high speed. 20 μL of the prepared protein sample and 4 μL of PageRuler Prestained Protein Ladder were added into the gel well for running at 80V voltage for 0.5 hours, then the voltage was adjusted to 120V for further running for 1.5 hours. The gel was removed and the proteins in the gel were transferred to the IBlotTM 2 transfer membrane set at 20V. After successful transfer, bands at 65 kDa-40 kDa and 40 kDa-30 kDa were cut respectively. The membranes were blocked with 5% skim milk for 1 hour at room temperature. The membranes were washed three times with 1× concentration of TBST, then incubated with IRAK4 antibody working solution overnight at 4° C. The IRAK4 antibody working solution was discarded, and the membranes were washed three times with 1×concentration of TBST, and incubated with Goat Anti-Rabbit IgG H&L (HRP) working solution and Goat Anti-Mouse IgG H&L (HRP) working solution at room temperature. After 1 hour of incubation, the antibody working solution was discarded and the membranes were washed three times with 1× concentration of TBST. According to the instructions of the kit SuperSignal™ West Femto Maximum Sensitivity Substrate, the reagents in the kit were mixed in equal volume proportions to prepare a luminescent liquid mixture. The membranes were incubated for 1 minute, then removed for exposure.
The results of Western blotting 24 hours after administration of the compounds with a concentration of 1 μM were shown in Table 3: […]

| SMILES | IC50 (kinase IRAK4; Table 2, substrate FAM-P8 3 μM) [µM] | DC50 [1] [µM] | IC50 (kinase IRAK4; Table 1, class symbols) [µM] | IRAK4 degradation rate 24 hours after administration of the compounds with a concentration of 1 μM [1] |
| --- | --- | --- | --- | --- |
| COc1cc2nn(C3CC4(CCN(C(=O)C5CCN(c6cccc7c6C(=O)N(C6CCC(=O)NC6=O)C7=O)CC5)CC4)C3)cc2cc1NC(=O)c1cccc(C(F)(F)F)n1 (stereo not shown) [Compound I-25] | 0.0204 | > 1 | – | – |
| COc1cc2nn(C3CC4(CCN(C(=O)C5CCN(c6ccc7c(c6)C(=O)N(C6CCC(=O)NC6=O)C7=O)CC5(F)F)CC4)C3)cc2cc1NC(=O)c1cccc(C(F)(F)F)n1 (stereo not shown) [Compound I-35] | 0.0334 | 0.00786 | – | – |
| COc1cc2nn(C3CC4(CCN(C(=O)C5CCN(c6cc7c(cc6F)C(=O)N([C@@H]6CCC(=O)NC6=O)C7=O)CC5)CC4)C3)cc2cc1NC(=O)c1cccc(C(F)(F)F)n1 [Compound I-62] | 0.019 | 0.00326 | – | – |
| COc1cc2nn(C3CC4(CCN(CC(=O)N5CCN(c6ccc7c(c6)C(=O)N(C6CCC(=O)NC6=O)C7=O)CC5)CC4)C3)cc2cc1NC(=O)c1cccc(C(F)(F)F)n1 (stereo not shown) [Compound I-2] | 0.011 | 0.00441 | < 0.1 | 75~100% |
| COc1cc2nn(C3CC4(CCN(C(=O)[C@H]5CC[C@H](Nc6ccc7c(c6)C(=O)N([C@H]6CCC(=O)NC6=O)C7=O)CC5)CC4)C3)cc2cc1NC(=O)c1cccc(C(F)(F)F)n1 [Compound I-59] | 0.0273 | 0.00805 | – | – |
| COc1cc2nn(C3CCN(CC(=O)N4CCN(c5cc6c(cc5F)C(=O)N(C5CCC(=O)NC5=O)C6=O)CC4)CC3)cc2cc1NC(=O)c1cccc(C(F)(F)F)n1 (stereo not shown) [II-5] | 0.011 | 0.00615 | < 0.1 | 75~100% |
| COc1cc2nn(C3CC4(CCN(c5cnn(C6CCN(c7ccc8c(c7)C(=O)N(C7CCC(=O)NC7=O)C8=O)CC6)c5)CC4)C3)cc2cc1NC(=O)c1cccc(C(F)(F)F)n1 (stereo not shown) [Compound I-32] | 0.0348 | 0.0338 | – | – |
| COc1cc2nn(C3CCN(C(=O)C4CCN(Cc5ccc6c(c5)C(=O)N(C5CCC(=O)NC5=O)C6=O)CC4)CC3)cc2cc1NC(=O)c1cccc(C(F)(F)F)n1 (stereo not shown) [II-16] | 0.014 | 0.0329 | < 0.1 | <25% |
| COc1cc2nn(C3CC4(CCN(C(=O)C5CCN(c6ccc7c(c6)C(=O)N([C@@H]6CCC(=O)NC6=O)C7=O)CC5)CC4)C3)cc2cc1NC(=O)c1cccc(C(F)(F)F)n1 [Compound I-58] | 0.0351 | 0.00267 | – | – |
| COc1cc2nn(C3CCC4(CC3)CCN(C(=O)C3CCN(c5ccc6c(c5)C(=O)N(C5CCC(=O)NC5=O)C6=O)CC3)CC4)cc2cc1NC(=O)c1cccc(C(F)(F)F)n1 (stereo not shown) [Compound I-27] | 0.042 | 0.0069 | – | – |
| COc1cc2nn(C3CC4(CCN(C(=O)C5(F)CCN(c6ccc7c(c6)C(=O)N(C6CCC(=O)NC6=O)C7=O)CC5)CC4)C3)cc2cc1NC(=O)c1cccc(C(F)(F)F)n1 (stereo not shown) [Compound I-34] | 0.0397 | 0.0227 | – | – |
| COc1cc2nn(C3CC4(CCC(C(=O)N5CCN(c6ccc7c(c6)C(=O)N(C6CCC(=O)NC6=O)C7=O)CC5)CC4)C3)cc2cc1NC(=O)c1cccc(C(F)(F)F)n1 (stereo not shown) [Compound I-20] | 0.0236 | 0.0112 | – | – |
| COc1cc2nn(C3CC4(CCN(C(=O)[C@H]5CC[C@H](Oc6ccc7c(c6)C(=O)N(C6CCC(=O)NC6=O)C7=O)CC5)CC4)C3)cc2cc1NC(=O)c1cccc(C(F)(F)F)n1 (stereo partly shown) [Compound I-31] | 0.034 | 0.0473 | – | – |
| COc1cc2nn(C3CC4(CCN(C(=O)C5CCN(c6ccc7c(c6)C(=O)N([C@@H]6CCC(=O)NC6=O)C7=O)CC5)CC4)C3)cc2cc1NC(=O)c1cccc(C(F)(F)F)n1 [Compound I-66] | 0.0253 | 0.00314 | – | – |
| COc1cc2nn(C3CCN(C(=O)CN4CCN(c5ccc6c(c5)C(=O)N(C5CCC(=O)NC5=O)C6=O)CC4)CC3)cc2cc1NC(=O)c1cccc(C(F)(F)F)n1 (stereo not shown) [II-4] | 0.02 | 0.0124 | < 0.1 | 50~75% |
| COc1cc2nn(C3CC4(CCN(C(=O)C5CCN(c6ccc7c(c6)C(=O)N(C6CCC(=O)NC6=O)C7=O)CC5)CC4)C3)cc2cc1NC(=O)c1cnn2ccc(N3CCN(C)CC3)nc12 (stereo not shown) [Compound I-49] | 0.0134 | 0.00979 | – | – |
| COc1cc2nn(C3CCN(C4CC5(CCN(c6ccc7c(c6)C(=O)N(C6CCC(=O)NC6=O)C7=O)CC5)C4)CC3)cc2cc1NC(=O)c1cccc(C(F)(F)F)n1 (stereo not shown) [II-12] | 0.0142 | 0.0205 | < 0.1 | – |
| COc1cc2nn(C3CCC4(CC3)CN(C(=O)C3CCN(c5ccc6c(c5)C(=O)N(C5CCC(=O)NC5=O)C6=O)CC3)C4)cc2cc1NC(=O)c1cccc(C(F)(F)F)n1 (stereo not shown) [Compound I-19] | 0.0081 | 0.00178 | – | – |
| COc1cc2nn(C3CC4(CCN(C(=O)C5CCN(c6ccc7c(c6)C(=O)N([C@H]6CCC(=O)NC6=O)C7=O)CC5)CC4)C3)cc2cc1NC(=O)c1cccc(C(F)(F)F)n1 [Compound I-57] | 0.0324 | 0.0122 | – | – |
| COc1cc2nn(C3CC4(CCN(C(=O)[C@H]5CC[C@H](Nc6ccc7c(c6)C(=O)N(C6CCC(=O)NC6=O)C7=O)CC5)CC4)C3)cc2cc1NC(=O)c1cccc(C(F)(F)F)n1 (stereo partly shown) [Compound I-4] | 0.0366 | 0.00206 | < 0.1 | – |
| COc1cc2nn(C3CC4(CCN(C(=O)[C@H]5CC[C@H](CNc6ccc7c(c6)C(=O)N(C6CCC(=O)NC6=O)C7=O)CC5)CC4)C3)cc2cc1NC(=O)c1cccc(C(F)(F)F)n1 (stereo partly shown) [Compound I-3] | 0.016 | 0.00364 | < 0.1 | 75~100% |
| COc1cc2nn(C3CC4CCC(C3)N4CC(=O)N3CCN(c4ccc5c(c4)C(=O)N(C4CCC(=O)NC4=O)C5=O)CC3)cc2cc1NC(=O)c1cccc(C(F)(F)F)n1 (stereo not shown) [II-13] | 0.0105 | 0.479 | < 0.1 | – |
| COc1cc2c(cnn2C2CC3(CCC(C(=O)N4CCN(c5ccc6c(c5)C(=O)N(C5CCC(=O)NC5=O)C6=O)CC4)CC3)C2)cc1NC(=O)c1cccc(C(F)(F)F)n1 (stereo not shown) [Compound I-56] | 1.96 | – | – | – |
